Data on seven compounds can be found in patent US20070293484A1, “Thiophene Heteroaryl Amines” (SUGEN, INC., priority 2004, published 2007).

“And” between values parts separate entries of the source, which are not always exact repeats. Equal entries are not always repeated.

One assay has as its target T1, GST-Flk1 (Mus musculus, UniProt P35918).
T1 construct: GST-Flk1cd purified from sf9 recombinant baculovirus transformation (SUGEN, Inc.); host or cells: Sf9 insect cells (recombinant baculovirus)
The assay is described as follows: GST-FLK-1 bioassay (ELISA, tyrosine kinase activity on poly(glu,tyr)). In kind it is biochemical. As to the method:
The assays described herein are performed in an ELISA (Enzyme-Linked Immunosorbent Sandwich Assay) format (Voller, et al., 1980, “Enzyme-Linked Immunosorbent Assay,” Manual of Clinical Immunology, 2d ed., Rose and Friedman, Am. Soc. Of Microbiology, Washington, D.C., pp. 359-371). The general procedure is as follows: a compound is introduced to cells expressing the test kinase, either naturally or recombinantly, for a selected period of time after which, if the test kinase is a receptor, a ligand known to activate the receptor is added. The cells are lysed and the lysate is transferred to the wells of an ELISA plate previously coated with a specific antibody recognizing the substrate of the enzymatic phosphorylation reaction. Non-substrate components of the cell lysate are washed away and the amount of phosphorylation on the substrate is detected with an antibody specifically recognizing phosphotyrosine compared with control cells that were not contacted with a test compound.
This assay analyzes the tyrosine kinase activity of GST-Flk1 on poly(glu,tyr) peptides.
• 1. Corning 96-well ELISA plates (Corning Catalog No. 5805-96). • 2. poly(glu,tyr) 4:1, lyophilizate (Sigma Catalog #P0275). • 3. Preparation of poly(glu,tyr)(pEY) coated assay plates: Coat 2 ug/well of poly(glu,tyr)(pEY) in 100 μL PBS, hold at room temperature for 2 hours or at 4° C. overnight. Cover plates well to prevent evaporation. • 4. PBS Buffer: for 1 L, mix 0.2 g KH2PO4, 1.15 g Na2HPO4, 0.2 g KCl and 8 g NaCl in approx. 900 ml dH2O. When all reagents have dissolved, adjust the pH to 7.2 with HCl. Bring total volume to 1 L with dH2O. • 5. PBST Buffer: to 1 L of PBS Buffer, add 1.0 ml Tween-20. • 6. TBB—Blocking Buffer: for 1 L, mix 1.21 g TRIS, 8.77 g NaCl, 1 ml TWEEN-20 in approximately 900 ml dH2O. Adjust pH to 7.2 with HCl. Add 10 g BSA, stir to dissolve. Bring total volume to 1 L with dH2O. Filter to remove particulate matter. • 7. 1% BSA in PBS: To make a 1× working solution, add 10 g BSA to approx. 990 ml PBS buffer, stir to dissolve. Adjust total volume to 1 L with PBS buffer, filter to remove particulate matter. • 8. 50 mM Hepes pH 7.5. • 9. GST-Flk1cd purified from sf9 recombinant baculovirus transformation (SUGEN, Inc.). • 10. 4% DMSO in dH2O. • 11. 10 mMATP in dH2O. • 12. 40 mM MnCl2 • 13. Kinase Dilution Buffer (KDB): mix 10 ml Hepes (pH 7.5), 1 ml 5M NaCl, 40 μL 100 mM sodium orthovanadate and 0.4 ml of 5% BSA in dH2O with 88.56 ml dH2O. • 14. NUNC 96-well V bottom polypropylene plates, Applied Scientific Catalog #AS-72092 • 15. EDTA: mix 14.12 g ethylenediaminetetraacetic acid (EDTA) to approx. 70 ml dH2O. Add 10 N NaOH until EDTA dissolves. Adjust pH to 8.0. Adjust total volume to 100 ml with dH2O. • 16. 1^0 Antibody Dilution Buffer: mix 10 ml of 5% BSA in PBS buffer with 89.5 ml TBST. • 17. Anti-phosphotyrosine monoclonal antibody conjugated to horseradish peroxidase (PY99 HRP, Santa Cruz Biotech). • 18. 2,2′-Azinobis(3-ethylbenzthiazoline-6-sulfonic acid (ABTS, Moss, Cat. No. ABST). • 19. 10% SDS. Procedure: • 1. Coat Corning 96-well ELISA plates with 2 μg of polyEY peptide in sterile PBS as described in step 3 of Materials and Reagents. • 2. Remove unbound liquid from wells by inverting plate. Wash once with TBST. Pat the plate on a paper towel to remove excess liquid. • 3. Add 100 μl of 1% BSA in PBS to each well. Incubate, with shaking, for 1 hr. at room temperature. • 4. Repeat step 2. • 5. Soak wells with 50 mM HEPES (pH7.5) (150 μl/well). • 6. Dilute test compound with dH2O/4% DMSO to 4 times the desired final assay concentration in 96-well polypropylene plates. • 7. Add 25 μl diluted test compound to ELISA plate. In control wells, place 25 μl of dH2O/4% DMSO. • 8. Add 25 μl of 40 mM MnCl2 with 4×ATP (2 μM) to each well. • 9. Add 25 μl 0.5M EDTA to negative control wells. • 10. Dilute GST-Flk1 to 0.005 μg (5 ng)/well with KDB. • 11. Add 50 μl of diluted enzyme to each well. • 12. Incubate, with shaking, for 15 minutes at room temperature. • 13. […]
(In general: In an ELISA, binding on a coated surface is turned into a signal by an enzyme label.)

A further assay concerns the target T2, PDGFR (Homo sapiens, UniProt P09619).
T2 construct: SUGEN, Inc; host or cells: NIH 3T3 cell lysate; receptor captured on plate with monoclonal anti-PDGFR antibody 28D4C10
The assay can be described thus: PDGFR bioassay (ELISA, in vitro kinase activity). In kind it is biochemical. The settings on record: PDGFR-β expressing NIH 3T3 cell lysate; read-out: IC50 (μM) PDGF-R.

T2 sequence (P09619 33-1106, species assumed): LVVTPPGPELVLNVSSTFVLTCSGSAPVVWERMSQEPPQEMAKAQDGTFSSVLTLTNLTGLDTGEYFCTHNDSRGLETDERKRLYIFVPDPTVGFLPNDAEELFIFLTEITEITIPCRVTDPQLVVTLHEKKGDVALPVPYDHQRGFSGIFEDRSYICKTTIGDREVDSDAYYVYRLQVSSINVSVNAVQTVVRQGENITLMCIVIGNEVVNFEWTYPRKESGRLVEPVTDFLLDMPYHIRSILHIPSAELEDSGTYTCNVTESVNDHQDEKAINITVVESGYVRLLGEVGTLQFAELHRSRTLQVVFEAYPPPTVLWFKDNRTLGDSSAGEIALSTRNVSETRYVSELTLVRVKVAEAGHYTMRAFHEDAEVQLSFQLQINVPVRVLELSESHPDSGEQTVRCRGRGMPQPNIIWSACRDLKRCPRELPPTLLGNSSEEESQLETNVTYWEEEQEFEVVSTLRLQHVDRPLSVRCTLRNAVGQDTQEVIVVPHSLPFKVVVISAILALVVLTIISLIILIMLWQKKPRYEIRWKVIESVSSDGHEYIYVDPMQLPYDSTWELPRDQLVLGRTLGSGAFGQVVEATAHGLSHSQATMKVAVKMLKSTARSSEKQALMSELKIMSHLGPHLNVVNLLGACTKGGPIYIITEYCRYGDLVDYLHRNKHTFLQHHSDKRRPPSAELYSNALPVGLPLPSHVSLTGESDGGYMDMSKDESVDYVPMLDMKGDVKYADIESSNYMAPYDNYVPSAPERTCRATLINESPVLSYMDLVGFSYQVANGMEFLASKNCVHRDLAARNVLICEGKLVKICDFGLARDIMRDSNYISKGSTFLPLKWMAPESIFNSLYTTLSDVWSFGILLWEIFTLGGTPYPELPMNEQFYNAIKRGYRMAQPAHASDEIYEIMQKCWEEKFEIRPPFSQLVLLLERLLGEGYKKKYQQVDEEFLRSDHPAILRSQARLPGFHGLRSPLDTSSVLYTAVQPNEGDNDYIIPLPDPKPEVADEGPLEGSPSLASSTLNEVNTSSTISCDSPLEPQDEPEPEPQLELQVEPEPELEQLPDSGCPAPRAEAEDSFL
T1 sequence (P35918 784-1345 limits assumed): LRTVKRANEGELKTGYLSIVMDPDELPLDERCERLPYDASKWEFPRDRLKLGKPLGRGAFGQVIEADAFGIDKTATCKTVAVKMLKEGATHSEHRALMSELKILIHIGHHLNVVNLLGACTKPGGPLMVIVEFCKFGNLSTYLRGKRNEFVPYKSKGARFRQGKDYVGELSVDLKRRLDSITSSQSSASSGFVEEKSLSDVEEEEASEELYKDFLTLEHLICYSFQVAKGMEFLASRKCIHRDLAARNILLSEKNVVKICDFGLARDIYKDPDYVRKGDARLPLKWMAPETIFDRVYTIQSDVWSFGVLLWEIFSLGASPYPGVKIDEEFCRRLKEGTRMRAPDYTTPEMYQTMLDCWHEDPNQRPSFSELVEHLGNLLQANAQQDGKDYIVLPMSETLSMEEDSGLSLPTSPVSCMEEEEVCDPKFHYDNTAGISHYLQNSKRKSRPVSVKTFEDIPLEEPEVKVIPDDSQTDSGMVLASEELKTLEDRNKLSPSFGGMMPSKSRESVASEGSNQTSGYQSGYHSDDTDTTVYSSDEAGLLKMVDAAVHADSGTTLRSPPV

For `O=C(CNCCN1CCOCC1)Nc1cccc(Nc2ncc(-c3ccsc3)cn2)c1` [Example 56, 2-(2-morpholin-4-yl-ethylamino)-N-[3-(5-thiophen-3-yl-pyrimidin-2-ylamino)-phenyl]-acetamide], the 50% inhibitory concentration (IC50) against GST-Flk1 worked out at 2.4 µM; on PDGFR, 0.09 µM.
The matching figures for `CCN(CC)CCNCC(=O)Nc1cccc(Nc2ncc(-c3ccsc3)cn2)c1` [Example 57, 2-(2-diethylamino-ethylamino)-N-[3-(5-thiophen-3-yl-pyrimidin-2-ylamino)-phenyl]-acetamide]: 3.1 µM and 0.23 µM.
As for `CN1CCN(CCNCC(=O)Nc2cccc(Nc3ncc(-c4ccsc4)cn3)c2)CC1` [Example 58, 2-[2-(4-methyl-piperazin-1-yl)-ethylamino]-N-[3-(5-thiophen-3-yl-pyrimidin-2-ylamino)-phenyl]-acetamide], the IC50 on GST-Flk1 is 2.5 µM and 4 µM; on PDGFR, 0.08 µM and 0.43 µM.
`O=C(CNCC(O)CN1CCOCC1)Nc1cccc(Nc2ncc(-c3ccsc3)cn2)c1` (centres unmarked) [Example 59, 2-(2-hydroxy-3-morpholin-4-yl-propylamino)-N-[3-(5-thiophen-3-yl-pyrimidin-2-ylamino)-phenyl]-acetamide]: the IC50 against GST-Flk1 stood at 2.7 µM; at PDGFR, 0.09 µM.
The matching figures for `O=C(CNCCN1CCS(=O)(=O)CC1)Nc1cccc(Nc2ncc(-c3ccsc3)cn2)c1` [Example 60, 2-[2-(1,1-dioxo-1λ^6-thiomorpholin-4-yl)-ethylamino]-N-[3-(5-thiophen-3-yl-pyrimidin-2-ylamino)-phenyl]-acetamide]: 2.4 µM and 0.06 µM.
The matching figures for `O=C(CN1CCOCC1)Nc1cccc(Nc2ncc(-c3ccsc3)cn2)c1` [Example 61, 2-morpholin-4-yl-N-[3-(5-thiophen-3-yl-pyrimidin-2-ylamino)-phenyl]-acetamide]: 2.5 µM and 0.94 µM.
On the same counts, the results for `O=C(CN1CCCC1)Nc1cccc(Nc2ncc(-c3ccsc3)cn2)c1` [Example 62, 2-pyrrolidin-1-yl-N-[3-(5-thiophen-3-yl-pyrimidin-2-ylamino)-phenyl]-acetamide] are 2.8 µM and 0.2 µM.

As usually defined, the IC50 is the concentration needed to halve the response being measured.
